Data: patent US10703748B2, “Diazanaphthalen-3-yl carboxamides and preparation and use thereof” (Samumed, LLC, priority 2017, dated 2020)
pEC50: −log10 of the molar value.

Assays:
[1] = tested on: α-smooth muscle actin (aSMA) positive LL29 cells; assay: Inhibition of the fibrotic process: αSMA staining in TGF-β1 treated LL29 fibroblasts from IPF patients; conditions: Homo sapiens, Fibroblast; for pEC50: 96 h; for inhibition at 10 µM: read-out: percentage in parentheses after EC50 >10
[2] = tested on: secreted cytokines TNFα, IL-6 and KC-GRO; assay: Secreted cytokines in Lipopolysaccharide-stimulated BV-2 cells (Table 9 does not say which cytokine); type: cell-based, mouse; conditions: Mus musculus, BV-2, 5 h; read-out: EC50
[3] = biological target: GSK3β kinase (Homo sapiens, UniProt P49841); assay: GSK3β kinase activity (Ser/Thr 09 peptide Z-lyte FRET assay); type: biochemical; conditions: recombinant kinase, 46 μM ATP, one hour at room temperature; read-out: EC50
[4] = tested on: Tau phosphorylation at Ser396 (pSer396); assay: Tau phosphorylation at Ser396 (pSer396) in SH-SY5Y cells, ELISA / western blot; type: cell-based, human; conditions: Homo sapiens; SH-SY5Y cells, overnight (16-18 h); read-out: pSer396 Tau EC50;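 further: decrease in pSer396 Tau measured in lysates of treated cells by colorimetric ELISA or chemiluminescent western blot, same pSer396 antibody for both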
Experimental: Two days before treatment, cells were seeded onto 96 well plates at 5×10^4 cells/well.
The above synthesized compounds were screened using the cell assay procedure to assess decrease Tau phosphorylation at Ser396 (pSer396) described below.
Cells were lysed with RIPA buffer complemented with phosphatase and protease inhibitors then lysates were spun down at 12,000 g for 10 min to remove any cellular debris.

[5] = tested on: SW480 colon carcinoma cells; assay: Cell viability assay (CellTiter-Glo); conditions: Homo sapiens; for pEC50: SW480, 96 h; for inhibition at 10 µM: SW480, read-out: percent inhibition at 10 μM
Experimental: Representative compounds were screened using the assay procedure to assess the effect on cell viability as described below.
SW480 colon carcinoma cells were transduced with a lentiviral vector expressing luciferase with a human Sp5 promoter consisting of a sequence of eight TCF/LEF binding sites. […] These stably transduced SW480 cells were expanded in cell culture and used for all further screening activities. Each compound was dissolved in DMSO as a 10 mM stock and used to prepare compound source plates.
For the Cell Viability Assays, the cells were plated at 2,000 cells/well in 384-well plates with a DMEM medium containing 1% fetal bovine serum, and 1% Penicillin-Streptomycin and incubated for four days hours at 37° C. and 5% CO2. Eight replicates of DMSO-treated cells served as controls and cells treated with compound were performed in duplicate.
After incubation, 10 μL of CellTiter-Glo (Promega) was added to each well allowed to incubate for approximately 12 minutes. This reagent “results in cell lysis and generation of a luminescent signal proportional to the amount of ATP present. The amount of ATP is directly proportional to the number of cells present in culture, in agreement with previous reports. The CellTiter-Glo Assay generates a “glow-type” luminescent signal, produced by the luciferase reaction (Promega.com)”.
Dose-response curves were generated and EC50 concentration values were calculated using non-linear regression curve fit in the GraphPad Prism (San Diego, Calif.) or Dotmatics' Studies Software (Bishops Stortford, UK).

[6] = tested on: Wnt-responsive Sp5-Luc reporter in SW480 colon carcinoma cells; assay: Screening assay for Wnt activity (Sp5-Luc reporter gene assay); conditions: Homo sapiens; for pEC50: SW480; for inhibition at 10 µM: SW480, read-out: percent inhibition at 10 μM
[7] = tested on: IL-6; assay: IL-6 inhibition in LPS-stimulated human peripheral blood mononuclear cells (HTRF); conditions: Homo sapiens, PBMC; for pEC50: 22 h; for inhibition at 10 µM: read-out: percentage in parentheses after EC50 >10
[8] = biological target: DYRK1A kinase (Homo sapiens, UniProt Q13627); assay: DYRK1A kinase activity (Ser/Thr 18 peptide Z-lyte FRET assay); type: biochemical; conditions: recombinant DYRK1A, 30 μM ATP, one hour at room temperature;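 further: kinase activity read as coumarin/fluorescein emission ratio after development step, with unphosphorylated and phosphorylated peptide forms setting 0% and 100% controls, values from dose-response curves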

GSK3β kinase, sequence (P49841 whole entry): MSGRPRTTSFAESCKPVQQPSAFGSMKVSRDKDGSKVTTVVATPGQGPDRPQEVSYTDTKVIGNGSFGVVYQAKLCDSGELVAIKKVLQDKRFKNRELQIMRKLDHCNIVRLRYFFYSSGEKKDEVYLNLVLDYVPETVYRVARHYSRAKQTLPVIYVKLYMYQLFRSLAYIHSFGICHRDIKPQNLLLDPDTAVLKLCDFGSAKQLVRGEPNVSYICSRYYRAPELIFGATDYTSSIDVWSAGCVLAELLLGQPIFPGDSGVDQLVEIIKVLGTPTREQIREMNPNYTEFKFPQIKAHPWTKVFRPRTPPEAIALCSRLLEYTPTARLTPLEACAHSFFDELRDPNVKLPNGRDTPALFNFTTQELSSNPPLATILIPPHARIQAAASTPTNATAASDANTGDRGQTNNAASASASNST

| pEC50 [2] | pEC50 [3] | pEC50 [4] | pEC50 [5] | pEC50 [6] | pEC50 [7] | pEC50 [8] | Compound | pEC50 [1] | inhibition at 10 µM [5] | inhibition at 10 µM [6] | inhibition at 10 µM [7] | inhibition at 10 µM [1] |
| --- | --- | --- | --- | --- | --- | --- | --- | --- | --- | --- | --- | --- |
| 5.97 | 6.69 | 5.89 | < 5.00 | < 5.00 | < 5.00 | 7.36 | CC(C)CN1CCC(C(=O)Nc2ncc3ccc(-c4cnn(C)c4)cc3n2)CC1 [Compound 923, 1-isobutyl-N-(7-(1-methyl-1H-pyrazol-4-yl)quinazolin-2-yl)piperidine-4-carboxamide] | 5.56 | 33.9% | 34.8% | 10.5% |  |
| 6.45 | 7.35 | 5.79 | < 5.00 | < 5.00 | < 5.00 | 7.35 | CN(CC(=O)Nc1ncc2ccc(-c3cnn(C)c3)cc2n1)C1CCC1 [Compound 963, 2-(Cyclobutyl(methyl)amino)-N-(7-(1-methyl-1H-pyrazol-4-yl)quinazolin-2-yl)acetamide] | 5.80 | 27.9% | 11.8% | 5.4% |  |
| < 5.00 | 7.46 | 5.27 | < 5.00 | < 5.00 | < 5.00 | 6.90 | Cn1cc(-c2ccc3cnc(NC(=O)CN4CCOCC4)nc3c2)cn1 [Compound 985, N-(7-(1-Methyl-1H-pyrazol-4-yl)quinazolin-2-yl)-2-morpholinoacetamide] | < 5.00 | 9.6% | 5.5% | 3.2% | 51.7% |
| 5.89 | 6.11 | < 5.00 | < 5.00 | < 5.00 | 5.08 | 7.82 | Cn1cc(-c2ccc3cnc(NC(=O)CC4CNCCO4)nc3c2)cn1 (stereo not drawn) [Compound 994, N-(7-(1-Methyl-1H-pyrazol-4-yl)quinazolin-2-yl)-2-(morpholin-2-yl)acetamide] | < 5.00 | 24.8% | 11.5% |  | 0% |
| 5.83 | 6.58 | 5.35 | < 5.00 | < 5.00 | < 5.00 | 7.60 | Cn1cc(-c2ccc3cnc(NC(=O)C4CCN(Cc5ncco5)CC4)nc3c2)cn1 [Compound 1003, N-(7-(1-Methyl-1H-pyrazol-4-yl)quinazolin-2-yl)-1-(oxazol-2-ylmethyl) piperidine-4-carboxamide] | < 5.00 | 18.5% | 19.3% | 6.6% | 4.8% |
| 5.74 | 6.46 | < 5.00 | < 5.00 | < 5.00 | < 5.00 | 6.97 | Cn1cc(-c2ccc3cnc(NC(=O)C4CCN(Cc5ncccn5)CC4)nc3c2)cn1 [Compound 1007, N-(7-(1-methyl-1H-pyrazol-4-yl)quinazolin-2-yl)-1-(pyrimidin-2-ylmethyl)piperidine-4-carboxamide] | < 5.00 | 17.9% | 14.6% | 2.4% | 39.7% |
| 5.51 | 7.26 | 5.02 | 5.35 | 5.64 | < 5.00 | 7.70 | Cn1cc(-c2ccc3cnc(NC(=O)CCc4ccccc4)nc3c2)cn1 [Compound 1101, N-(7-(1-Methyl-1H-pyrazol-4-yl)quinazolin-2-yl)-3-phenylpropanamide] | < 5.00 |  |  | 10.6% | 12.7% |
| 5.25 | 6.40 | 5.27 | < 5.00 | < 5.00 | < 5.00 | 7.38 | Cn1ncc(-c2ccc3cnc(NC(=O)C4CC5(C4)CN(CCF)C5)nc3c2)c1CN1CCCCC1 [Compound 1186, 2-(2-Fluoroethyl)-N-(7-(1-methyl-5-(piperidin-1-ylmethyl)-1H-pyrazol-4-yl)quinazolin-2-yl)-2-azaspiro[3.3]heptane-6-carboxamide] | < 5.00 | 35.2% | 35.8% | 6.7% | 24.5% |
| < 5.00 | 7.82 | 6.73 | < 5.00 | 5.93 | < 5.00 | 7.89 | Cn1cc(-c2ccc3cnc(NC(=O)C4CCN(CC5(C(F)(F)F)CC5)CC4)nc3c2)nn1 [Compound 1253, N-(7-(1-Methyl-1H-1,2,3-triazol-4-yl)quinazolin-2-yl)-1-((1-(trifluoromethyl)cyclopropyl)methyl)piperidine-4-carboxamide] | < 5.00 | 17.1% |  | 4.4% | 47.2% |
| 5.14 | 6.87 | 5.30 | 5.07 | 5.43 | < 5.00 | 8.15 | CNC(=O)c1ccc(C(=O)Nc2ncc3ccc(-c4cn(C)nn4)cc3n2)cn1 [Compound 1278, N^2-Methyl-N^5-(7-(1-methyl-1H-1,2,3-triazol-4-yl)quinazolin-2-yl)pyridine-2,5-dicarboxamide] | < 5.00 |  |  | 3% | 35.9% |
| 5.41 | 6.78 | 5.43 | 5.05 | < 5.00 | < 5.00 | 7.41 | Cc1cn2c(n1)CN(C(=O)Nc1ncc3ccc(-c4cnc(C)o4)cc3n1)CC2 [Compound 1491, 2-Methyl-N-(7-(2-methyloxazol-5-yl)quinazolin-2-yl)-5,6-dihydroimidazo [1,2-a]pyrazine-7(8H)-carboxamide] | < 5.00 |  | 25.2% | 2.6% | 6.1% |
| 5.97 | 6.60 | 5.27 | < 5.00 | < 5.00 | < 5.00 | 7.85 | CN(C)[C@H]1CC[C@H](C(=O)Nc2ncc3ccc(-c4cncs4)cc3n2)CC1 [Compound 1518, trans-4-(Dimethylamino)-N-(7-(thiazol-5-yl)quinazolin-2-yl)cyclohexane-1-carboxamide] | 5.58 | 25.3% | 24.8% | 30.1% |  |
| 5.44 | 6.39 | < 5.00 | < 5.00 | < 5.00 | < 5.00 | 8.15 | O=C(Nc1ncc2ccc(-c3cncs3)cc2n1)C1CCN(C(=O)CN2CCCC2)CC1 [Compound 1524, 1-(2-(Pyrrolidin-1-yl)acetyl)-N-(7-(thiazol-5-yl)quinazolin-2-yl)piperidine-4-carboxamide] | 5.32 | 18.1% | 13.4% | 50% |  |
| 6.47 | 6.68 | 5.93 | 5.98 | 6.18 | < 5.00 | 8.40 | CN1CCN(c2cc(C(=O)Nc3ncc4ccc(-c5cncs5)cc4n3)ccn2)CC1 [Compound 1536, 2-(4-Methylpiperazin-1-yl)-N-(7-(thiazol-5-yl)quinazolin-2-yl)isonicotinamide] | 5.95 |  |  | 49.6% |  |
| 5.51 | 5.38 | < 5.00 | < 5.00 | < 5.00 | < 5.00 | 7.57 | CN1CCC(C(=O)Nc2ncc3ccc(-c4cnsc4)cc3n2)CC1 [Compound 1598, N-(7-(Isothiazol-4-yl)quinazolin-2-yl)-1-methylpiperidine-4-carboxamide] | 5.90 | 8.4% | 15.5% | 7.5% |  |
| 5.66 | 7.31 | 5.96 | < 5.00 | < 5.00 | < 5.00 | 7.68 | CO[C@H]1CC[C@@H](C(=O)Nc2ncc3ccc(-c4nnc(C)s4)cc3n2)CC1 [Compound 1612, cis-4-Methoxy-N-(7-(5-methyl-1,3,4-thiadiazol-2-yl)quinazolin-2-yl)cyclohexane-1-carboxamide] | < 5.00 | 23.8% | 37.9% | 6.3% | 42% |

| Compound | pEC50 [2] | pEC50 [3] | pEC50 [4] | pEC50 [5] | pEC50 [6] | pEC50 [7] | pEC50 [8] | pEC50 [1] | inhibition at 10 µM [5] | inhibition at 10 µM [6] | inhibition at 10 µM [7] | inhibition at 10 µM [1] |
| --- | --- | --- | --- | --- | --- | --- | --- | --- | --- | --- | --- | --- |
| CN1CCC(N(C)c2cc(C(=O)Nc3ncc4ccc(-c5cn(C)nn5)cc4n3)ccn2)CC1 [Compound 1288, 2-(Methyl(1-methylpiperidin-4-yl)amino)-N-(7-(1-methyl-1H-1,2,3-triazol-4-yl)quinazolin-2-yl)isonicotinamide] | 5.21 | 6.75 | 5.00 | 5.96 | 7.23 | < 5.00 | 8.22 | 5.10 |  |  | 9.8% |  |
